Test results reported in patent publication US20240270762A1, “PENICILLIN-BINDING PROTEIN INHIBITORS” (priority 2021, published 2024).
Values after ≈ are worked out from the molar mass of the structure shown. Like-named read-outs stand apart in the source and are kept apart here.

Experiments:
[1] = target: T1, PBP3 from Escherichia coli (K-12) (Escherichia coli, UniProt P0AD68); experiment: Bocillin-FL fluorescence polarization competition binding, E. coli PBP3
T1 construct: made in house
Procedure, shortened: (§1)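 Purified PBPs pre-incubated with inhibitor (E. coli PBP3 1.5 μM, 30 min; P. aeruginosa PBP3 0.75 μM, A. baumannii PBP1a 1 μM and PBP3 0.2 μM, 15 min), then Bocillin-FL 0.1 μM (0.05 μM for PBP1a) added; FP read up to 60 min. EC50 = concentration halving bound Bocillin-FL.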

[2] = target: T2, PBP3 from Pseudomonas aeruginosa (PAO1) (Pseudomonas aeruginosa, UniProt G3XD46); experiment: Bocillin-FL fluorescence polarization competition binding, P. aeruginosa PBP3; settings: Binding affinity to P. aeruginosa PBP3; fluorescence polarization competition binding assay using Bocillin-FL; read-out: P. aeruginosa PBP3 Potency
T2 construct: made in house
Procedure, shortened: as §1

[3] = target: T3, PBP1a from Acinetobacter baumannii (ATCC 19606) (Acinetobacter baumannii, UniProt A0ABX6CK30); experiment: Bocillin-FL fluorescence polarization competition binding, A. baumannii PBP1a; settings: fluorescence polarization competition binding assay using Bocillin-FL; read-out: A. baumannii PBP1a Potency
T3 sequence (A0ABX6CK30 1-851): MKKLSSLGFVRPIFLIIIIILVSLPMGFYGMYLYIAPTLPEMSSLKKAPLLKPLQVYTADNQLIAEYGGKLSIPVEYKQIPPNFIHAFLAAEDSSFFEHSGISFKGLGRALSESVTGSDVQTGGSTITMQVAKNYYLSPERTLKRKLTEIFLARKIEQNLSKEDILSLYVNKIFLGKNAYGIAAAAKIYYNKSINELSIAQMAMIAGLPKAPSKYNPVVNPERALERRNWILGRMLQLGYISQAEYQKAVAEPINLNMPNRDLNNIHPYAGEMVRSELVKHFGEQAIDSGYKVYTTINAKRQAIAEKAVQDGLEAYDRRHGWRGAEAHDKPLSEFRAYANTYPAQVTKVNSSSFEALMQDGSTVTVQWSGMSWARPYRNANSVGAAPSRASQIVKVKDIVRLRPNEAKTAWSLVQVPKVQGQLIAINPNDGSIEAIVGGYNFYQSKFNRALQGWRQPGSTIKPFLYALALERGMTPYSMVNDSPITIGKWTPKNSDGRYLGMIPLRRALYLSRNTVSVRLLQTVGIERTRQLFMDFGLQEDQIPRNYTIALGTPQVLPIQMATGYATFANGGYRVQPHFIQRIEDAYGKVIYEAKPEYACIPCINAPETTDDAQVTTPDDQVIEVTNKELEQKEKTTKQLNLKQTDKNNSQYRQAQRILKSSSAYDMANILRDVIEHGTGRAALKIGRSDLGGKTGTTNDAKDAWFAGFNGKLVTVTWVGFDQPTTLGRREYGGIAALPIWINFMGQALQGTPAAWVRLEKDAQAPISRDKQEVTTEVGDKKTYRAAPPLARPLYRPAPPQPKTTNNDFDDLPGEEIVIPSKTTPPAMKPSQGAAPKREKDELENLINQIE
Procedure, shortened: as §1

A. baumannii ATCC 17978 = experiment: microbe, parasite or virus in culture; type: cell-based; settings: Acinetobacter baumannii, ATCC17978, read-out: MIC, A. baumannii ATCC 17978
P. aeruginosa CDC-0090 = experiment: microbe, parasite or virus in culture; type: cell-based; settings: Pseudomonas aeruginosa, CDC0090, read-out: Minimum inhibitory concentration, P. aeruginosa CDC-0090
A. baumannii CDC-0033 = experiment: microbe, parasite or virus in culture; type: cell-based; settings: Acinetobacter baumannii, CDC0033, read-out: MIC, A. baumannii CDC-0033
[4] = tested on: N. gonorrhoeae ATCC 49226; experiment: Liquid broth MIC in Fastidious broth; settings: Neisseria gonorrhoeae
N. gonorrhoeae WHO L = experiment: Liquid broth MIC in Fastidious broth; settings: Neisseria gonorrhoeae
[5] = ATCC49226, read-out: Minimum Inhibitory Concentration (MIC), N. gonorrhoeae ATCC 49226
[6] = read-out: Minimum Inhibitory Concentration (MIC), N. gonorrhoeae WHO L
[7] = ATCC49226, read-out: Minimum Inhibitory Concentration, ATCC 49226
[8] = read-out: Minimum Inhibitory Concentration, WHO L

T2 sequence (G3XD46 whole entry): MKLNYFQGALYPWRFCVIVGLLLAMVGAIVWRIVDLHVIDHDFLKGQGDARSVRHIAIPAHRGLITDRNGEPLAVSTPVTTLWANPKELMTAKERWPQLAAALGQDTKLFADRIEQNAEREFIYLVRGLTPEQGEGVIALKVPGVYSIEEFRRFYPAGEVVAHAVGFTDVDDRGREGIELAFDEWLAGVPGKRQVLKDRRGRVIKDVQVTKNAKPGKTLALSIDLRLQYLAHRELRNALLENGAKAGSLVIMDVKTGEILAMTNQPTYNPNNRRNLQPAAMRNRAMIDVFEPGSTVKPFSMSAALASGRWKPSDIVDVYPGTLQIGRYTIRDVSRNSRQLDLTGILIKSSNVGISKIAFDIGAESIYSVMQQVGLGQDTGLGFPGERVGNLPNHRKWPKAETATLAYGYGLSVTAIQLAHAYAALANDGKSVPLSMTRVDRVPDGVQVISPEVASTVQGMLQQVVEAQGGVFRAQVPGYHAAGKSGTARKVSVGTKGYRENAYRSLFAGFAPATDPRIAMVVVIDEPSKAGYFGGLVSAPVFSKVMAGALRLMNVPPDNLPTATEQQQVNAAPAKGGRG
T1 sequence (P0AD68 1-577): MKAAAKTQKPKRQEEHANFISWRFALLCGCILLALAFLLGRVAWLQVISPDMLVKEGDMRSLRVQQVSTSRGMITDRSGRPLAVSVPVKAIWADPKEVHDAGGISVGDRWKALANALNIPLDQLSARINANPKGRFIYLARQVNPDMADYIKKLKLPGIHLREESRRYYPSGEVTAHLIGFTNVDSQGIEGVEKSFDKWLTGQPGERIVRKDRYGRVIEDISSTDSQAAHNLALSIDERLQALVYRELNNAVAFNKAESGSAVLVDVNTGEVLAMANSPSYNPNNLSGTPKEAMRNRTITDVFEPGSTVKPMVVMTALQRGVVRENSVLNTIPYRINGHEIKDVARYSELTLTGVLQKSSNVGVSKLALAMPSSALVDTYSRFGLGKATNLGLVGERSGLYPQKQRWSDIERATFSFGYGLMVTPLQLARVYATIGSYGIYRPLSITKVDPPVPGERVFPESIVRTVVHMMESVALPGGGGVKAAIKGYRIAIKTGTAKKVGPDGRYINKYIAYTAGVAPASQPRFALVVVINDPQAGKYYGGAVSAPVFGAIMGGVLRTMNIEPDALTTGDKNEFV

Structure (SMILES) | EC50 [1] | IC50 [2] | IC50 [3] | MIC (A. baumannii ATCC 17978) | MIC (P. aeruginosa CDC-0090) | MIC (A. baumannii CDC-0033) | MIC [4, 5] | MIC (N. gonorrhoeae WHO L; [6]) | MIC [4, 7] | MIC (N. gonorrhoeae WHO L; [8])
O=C(CN1CCN(C(=O)NC(C(=O)N[C@H]2Cc3ccc(F)c(C(=O)O)c3OB2O)c2cc(F)c(O)c(O)c2Cl)C(=O)C1=O)NCc1cccc(O)c1 (stereo partly drawn) [Example 237, (3R)-3-(2-(2-chloro-5-fluoro-3,4-dihydroxyphenyl)-2-(4-(2-((3-hydroxybenzyl)amino)-2-oxoethyl)-2,3-dioxopiperazine-1-carboxamido)acetamido)-7-fluoro-2-hydroxy-3,4-dihydro-2H-benzo[e][1,2]oxaborinine-8-carboxylic acid] | < 10 µM | < 10 µM | > 250 µM | < 1 µg/mL | 2 to 4 µg/mL (≈ 2.68 to 5.36 µM) | 8 to 16 µg/mL (≈ 10.7 to 21.5 µM) | 16 to 32 µg/mL (≈ 21.5 to 42.9 µM) | > 64 µg/mL | – | –
O=C(NCCCN1CCN(C(=O)N[C@@H](C(=O)N[C@H]2Cc3ccc(F)c(C(=O)O)c3OB2O)c2cc(F)c(O)c(O)c2Cl)C1=O)Nc1cccc(O)c1 [Example 258, (R)-3-((R)-2-(2-chloro-5-fluoro-3,4-dihydroxyphenyl)-2-(3-(3-(3-(3-hydroxyphenyl)ureido)propyl)-2-oxoimidazolidine-1-carboxamido)acetamido)-7-fluoro-2-hydroxy-3,4-dihydro-2H-benzo[e][1,2]oxaborinine-8-carboxylic acid] | < 10 µM | < 10 µM | > 250 µM | < 1 µg/mL | < 1 µg/mL | < 1 µg/mL | – | – | 4 to 8 µg/mL (≈ 5.36 to 10.7 µM) | > 64 µg/mL
O=C(O)c1c(F)ccc2c1OB(O)[C@@H](NC(=O)[C@H](NC(=O)N1CCN(CCNC(=O)[C@@H]3CCCN3)C(=O)C1=O)c1cc(F)c(O)c(O)c1Cl)C2 [Example 229, (R)-3-((R)-2-(2-chloro-5-fluoro-3,4-dihydroxyphenyl)-2-(2,3-dioxo-4-(2-((S)-pyrrolidine-2-carboxamido)ethyl)piperazine-1-carboxamido)acetamido)-7-fluoro-2-hydroxy-3,4-dihydro-2H-benzo[e][1,2]oxaborinine-8-carboxylic acid] | 10 to 50 µM | < 10 µM | > 250 µM | < 1 µg/mL | 2 to 4 µg/mL (≈ 2.77 to 5.53 µM) | 8 to 16 µg/mL (≈ 11.1 to 22.1 µM) | 16 to 32 µg/mL (≈ 22.1 to 44.3 µM) | > 64 µg/mL | – | –
O=C(NCCN1CCN(C(=O)NC(C(=O)N[C@H]2Cc3ccc(F)c(C(=O)O)c3OB2O)c2cc(F)c(O)c(O)c2Cl)C1=O)c1cccnc1 (stereo partly drawn) [Example 246, (3R)-3-(2-(2-chloro-5-fluoro-3,4-dihydroxyphenyl)-2-(3-(2-(nicotinamido)ethyl)-2-oxoimidazolidine-1-carboxamido)acetamido)-7-fluoro-2-hydroxy-3,4-dihydro-2H-benzo[e][1,2]oxaborinine-8-carboxylic acid] | 10 to 50 µM | < 10 µM | > 250 µM | < 1 µg/mL | 2 to 4 µg/mL (≈ 2.85 to 5.69 µM) | 2 to 4 µg/mL (≈ 2.85 to 5.69 µM) | – | – | 16 to 32 µg/mL (≈ 22.8 to 45.5 µM) | > 64 µg/mL
O=C(NCCCN1CCN(C(=O)NC(C(=O)N[C@H]2Cc3ccc(F)c(C(=O)O)c3OB2O)c2cc(F)c(O)c(O)c2Cl)C1=O)c1nccs1 (stereo partly drawn) [Example 257, (3R)-3-(2-(2-chloro-5-fluoro-3,4-dihydroxyphenyl)-2-(2-oxo-3-(3-(thiazole-2-carboxamido)propyl)imidazolidine-1-carboxamido)acetamido)-7-fluoro-2-hydroxy-3,4-dihydro-2H-benzo[e][1,2]oxaborinine-8-carboxylic acid] | 10 to 50 µM | < 10 µM | > 250 µM | < 1 µg/mL | 2 to 4 µg/mL (≈ 2.77 to 5.53 µM) | 2 to 4 µg/mL (≈ 2.77 to 5.53 µM) | – | – | > 64 µg/mL | > 64 µg/mL
O=C(NCCCN1CCN(C(=O)NC(C(=O)N[C@H]2Cc3ccc(F)c(C(=O)O)c3OB2O)c2cc(F)c(O)c(O)c2Cl)C(=O)C1=O)Nc1ccncc1 (stereo partly drawn) [Example 228, (3R)-3-(2-(2-chloro-5-fluoro-3,4-dihydroxyphenyl)-2-(2,3-dioxo-4-(3-(3-(pyridin-4-yl)ureido)propyl)piperazine-1-carboxamido)acetamido)-7-fluoro-2-hydroxy-3,4-dihydro-2H-benzo[e][1,2]oxaborinine-8-carboxylic acid] | < 10 µM | < 10 µM | > 250 µM | < 1 µg/mL | 2 to 4 µg/mL (≈ 2.63 to 5.26 µM) | 2 to 4 µg/mL (≈ 2.63 to 5.26 µM) | > 64 µg/mL | > 64 µg/mL | – | –
CN(CCN1CCN(C(=O)NC(C(=O)N[C@H]2Cc3ccc(F)c(C(=O)O)c3OB2O)c2cc(F)c(O)c(O)c2Cl)C(=O)C1=O)S(=O)(=O)c1ccc(C(N)=O)cc1 (stereo partly drawn) [Example 223, (3R)-3-(2-(4-(2-((4-carbamoyl-N-methylphenyl)sulfonamido)ethyl)-2,3-dioxopiperazine-1-carboxamido)-2-(2-chloro-5-fluoro-3,4-dihydroxyphenyl)acetamido)-7-fluoro-2-hydroxy-3,4-dihydro-2H-benzo[e][1,2]oxaborinine-8-carboxylic acid] | < 10 µM | < 10 µM | > 250 µM | < 1 µg/mL | 2 to 4 µg/mL (≈ 2.43 to 4.86 µM) | 8 to 16 µg/mL (≈ 9.72 to 19.4 µM) | 16 to 32 µg/mL (≈ 19.4 to 38.9 µM) | > 64 µg/mL | – | –
CN(CCN1CCN(C(=O)NC(C(=O)N[C@H]2Cc3ccc(F)c(C(=O)O)c3OB2O)c2cc(F)c(O)c(O)c2Cl)C(=O)C1=O)S(=O)(=O)c1cccc(C(N)=O)c1 (stereo partly drawn) [Example 224, (3R)-3-(2-(4-(2-((3-carbamoyl-N-methylphenyl)sulfonamido)ethyl)-2,3-dioxopiperazine-1-carboxamido)-2-(2-chloro-5-fluoro-3,4-dihydroxyphenyl)acetamido)-7-fluoro-2-hydroxy-3,4-dihydro-2H-benzo[e][1,2]oxaborinine-8-carboxylic acid] | < 10 µM | < 10 µM | > 250 µM | < 1 µg/mL | < 1 µg/mL | 8 to 16 µg/mL (≈ 9.72 to 19.4 µM) | 16 to 32 µg/mL (≈ 19.4 to 38.9 µM) | > 64 µg/mL | – | –
O=C(NCCN1CCN(C(=O)NC(C(=O)N[C@H]2Cc3ccc(F)c(C(=O)O)c3OB2O)c2cc(F)c(O)c(O)c2Cl)C1=O)Nc1ccncc1 (stereo partly drawn) [Example 250, (3R)-3-(2-(2-chloro-5-fluoro-3,4-dihydroxyphenyl)-2-(2-oxo-3-(2-(3-(pyridin-4-yl)ureido)ethyl)imidazolidine-1-carboxamido)acetamido)-7-fluoro-2-hydroxy-3,4-dihydro-2H-benzo[e][1,2]oxaborinine-8-carboxylic acid] | < 10 µM | < 10 µM | > 250 µM | < 1 µg/mL | 2 to 4 µg/mL (≈ 2.79 to 5.57 µM) | 2 to 4 µg/mL (≈ 2.79 to 5.57 µM) | – | – | > 64 µg/mL | > 64 µg/mL
O=C(O)c1c(F)ccc2c1OB(O)[C@@H](NC(=O)C(NC(=O)N1CCN(CCNC(=O)[C@@H]3CCCN3)C1=O)c1cc(F)c(O)c(O)c1Cl)C2 (stereo partly drawn) [Example 248, (3R)-3-(2-(2-chloro-5-fluoro-3,4-dihydroxyphenyl)-2-(2-oxo-3-(2-((S)-pyrrolidine-2-carboxamido)ethyl)imidazolidine-1-carboxamido)acetamido)-7-fluoro-2-hydroxy-3,4-dihydro-2H-benzo[e][1,2]oxaborinine-8-carboxylic acid] | 10 to 50 µM | 10 to 50 µM | > 250 µM | < 1 µg/mL | 8 to 16 µg/mL (≈ 11.5 to 23 µM) | 2 to 4 µg/mL (≈ 2.88 to 5.76 µM) | – | – | 16 to 32 µg/mL (≈ 23 to 46.1 µM) | > 64 µg/mL
